Laboratory results published in patent US7806924B2 (Cordis Corporation, priority 2004, dated 2010).

What was measured:
[1] = In vivo release kinetics of rapamycin and mycophenolic acid, porcine pharmacokinetics studies
Source text: The topcoat is two hundred micro grams.

[2] = tested on: human smooth muscle cells; assay: Cladribine Example: PDGF-stimulated proliferation, cell count on day six, smooth muscle cells; type: cell-based; details: from the IC50 values
Description: To assess the ability of cladribine to prevent cell proliferation, human smooth muscle or endothelial cells (Clonetics, Walkersville, Md.) were seeded at a density of 2000 cells/cm^2 (approximately 3600 cells/well) into each well of 12-well plates and cultured with 1.5 ml of growth medium containing five percent fetal calf serum (FCS). After twenty-four hours, the growth medium was changed and fresh medium containing 10 ng/ml platelet-derived growth factor AB (PDGF AB; LIFE Technologies), as well as various concentrations of cladribine (0.001-10,000 nM) were added with triplicate wells. Medium was replaced with fresh cladribine-containing medium after three days. On day six, cells were detached by trypsinization to yield a cell suspension, lightly centrifuged to pellet and then counted manually using a Neubauer hemocytometer system. Cell viability was assessed by trypan blue exclusion.

[3] = In vivo release kinetics of rapamycin and cladribine, porcine pharmacokinetics studies; parameters: species or system Yorkshire pigs; details: Bx Velocity stents, FIG. 63 compared to FIG. 62
Source text: (§1) The basecoat is applied to Bx Velocity® stents and implanted into Yorkshire pigs.
as §1

[4] = tested on: human coronary artery smooth muscle cells; assay: Anti-proliferative activity in non-synchronized cultured human coronary artery smooth muscle cells stimulated with two percent fetal bovine serum; type: cell-based; details: for effect on the anti-proliferative activity of rapamycin (shift of the rapamycin dose response curve): added to cells treated with rapamycin
Source text: The multiple curves represent various concentrations of mycophenolic acid ranging from zero to one thousand nanomolar concentrations.
FIG. 58 illustrates, in graphical format, the anti-proliferative activity of cladribine in non-synchronized cultured human coronary artery smooth muscle cells stimulated with two percent fetal bovine serum.
The multiple curves represent various concentrations of cladribine ranging from zero to nine hundred nanomolar concentrations.

[5] = tested on: human coronary artery smooth muscle cell proliferation; assay: In vitro cell culture study of coronary artery smooth muscle cell proliferation; type: cell-based
Source text: FIG. 51 is a graph of the inhibition of coronary artery smooth muscle cells by trichostatin A in a cell culture study.

tumor cell lines = details: cited from earlier work

For `CO[C@H]1C[C@@H]2CC[C@@H](C)[C@@](O)(O2)C(=O)C(=O)N2CCCC[C@H]2C(=O)O[C@H]([C@H](C)C[C@@H]2CC[C@@H](O)[C@H](OC)C2)CC(=O)[C@H](C)/C=C(\C)[C@@H](O)[C@@H](OC)C(=O)[C@H](C)C[C@H](C)/C=C/C=C/C=C/1C` [Rapamycin, rapamycin], the “in vivo release rate from PVDF basecoat with PVDF topcoat” value ([1]; six hundred micro grams basecoat, two hundred micro grams topcoat) was “slower release rate than that of mycophenolic acid”.

With `Nc1nc(Cl)nc2c1ncn2[C@H]1C[C@H](O)[C@@H](CO)O1` [cladribine, 2-chlorodeoxyadenosine] the “potency as inhibitor of smooth muscle cells relative to endothelial cells” value [2] was “approximately twice”, the “in vivo elution from EVA/BMA basecoat with BMA topcoat” value [3] was “elutes more rapidly than rapamycin” and the “inhibition of human coronary artery smooth muscle cell proliferation” value ([4]; FIG. 58) was “completely inhibits”. For the same compound, the “effect on the anti-proliferative activity of rapamycin (shift of the rapamycin dose response curve)” value [4] was “potentiate”.

With `COc1c(C)c2c(c(O)c1C/C=C(\C)CCC(=O)O)C(=O)OC2` [mycophenolic acid] the “in vivo release from EVA/BMA basecoat (with or without BMA topcoat)” value ([1]; 180 micro grams rapamycin, 180 micro grams mycophenolic acid, 240 micro grams EVA/BMA) was “elutes more completely over a shorter duration than the rapamycin” and the “effect on the anti-proliferative activity of rapamycin (shift of the rapamycin dose response curve)” value [4] was “potentiates”.

For `CC(/C=C/C(=O)NO)=C\[C@@H](C)C(=O)c1ccc(N(C)C)cc1` [trichostatin A], the “inhibition of human coronary artery smooth muscle cell proliferation” value [5] is listed as “completely inhibit”, the IC50 ([5]; read-out: anti-proliferative IC50) is listed as roughly 6 nM and the “anti-proliferative IC50's” value (tumor cell lines) is listed as “low nM range”.
